According to paper PMC12431657, “Discovery and mechanistic insights of dibenzoylmethane as a broad spectrum inhibitor of coronavirus” (PLOS Pathogens, 2025):
Where “and” joins values, the source holds several entries; their conditions need not be identical. Equal entries are not always repeated. Where two headings read alike, the source gives them in different places.

Key:
[1] = Metabolic stability in mouse liver microsomes; type: in vitro ADME; details: average, read-out: T1/2 of metabolism
Protocol: Thus, a pharmacokinetic study was performed for DBM in Sprague-Dawley (SD) rats. Following oral administration of menstruum or DBM at 200 mpk, blood samples from the rats were collected at 2 min, 5 min, 15 min, 30 min, 1 h, 2 h, 4 h, 8 h, and 24 h posttreatment. The concentration of DBM in the plasma was determined by liquid chromatography with tandem mass spectrometry (LC-MS/MS). The minimum effective concentration (MEC) line in the graph represents the EC95 value of DBM (Fig 3C). […] To analyse the metabolic stability of DBM, we incubated human and mouse liver microsomes with DBM. The T1/2 of metabolism was an average of 13.92 min in human liver microsomes and 4.84 min in mouse liver microsomes.

HCoV-OC43 = experiment: Time-of-addition assay; type: cell-based; details: for time-of-addition, viral inhibition: replicates
Protocol: To obtain further insight into the stage at which DBM inhibits the replication of HCoV-OC43 and other HCoVs, RD cells were incubated with compounds, including DBM, remdesivir (RDV), and chloroquine (CQ), at different stages of viral infection. Viral RNA from the supernatant was extracted and quantitatively analysed via qRT-PCR. […] For the viral binding assay, cells were cultured in the presence or absence of DBM at different concentrations for 1 hour before being infected with HCoV-OC43 at an MOI of 50, and then were placed on ice for 2 hours for the viral particles to bind to the membrane of the host cells, followed by washing with PBS. […] In addition to binding to receptors from host cells, the spike proteins of HCoV-OC43 could also trigger membrane fusion when HCoV-OC43 spike plasmid-transfected 293T cells were seeded together with RD cells as target cells, and the addition of DBM had no effect on this process (S5C Fig). To examine whether DBM inhibits viral internalisation, cells were inoculated with HCoV-OC43 for 1 hour on ice before being treated with either DBM or DMSO, and CQ was included to prevent endosomal acidification. Subsequently, HCoV-OC43 nucleocapsid proteins were immunostained with CoraLite Plus 488 to assess viral internalisation via confocal microscopy. […] To determine whether DBM influences viral release, we quantified viral RNA both intracellularly and in the supernatant.
To evaluate the effects of DBM on the life cycle of HCoV-229E and HCoV-OC43, fresh culture medium containing 0.6 μM DBM, 0.1 μM remdesivir (RDV), or 10 μM chloroquine (CQ) was supplemented with preseeded cells at different time points relative to infection (entry group: 0 to –2 hours; postinfection group: 2–12 hours; and full-time group: 0 to –12 hours). DMSO served as the control. At 24 hours postinfection, the number of intracellular virus RNA copies was quantified by qRT-PCR as previously described.

caspase-6 = molecular target: T1, caspase-6 (Homo sapiens, UniProt P55212); type: cell-based
T1 construct: endogenous in cells
T1 sequence (P55212 24-293): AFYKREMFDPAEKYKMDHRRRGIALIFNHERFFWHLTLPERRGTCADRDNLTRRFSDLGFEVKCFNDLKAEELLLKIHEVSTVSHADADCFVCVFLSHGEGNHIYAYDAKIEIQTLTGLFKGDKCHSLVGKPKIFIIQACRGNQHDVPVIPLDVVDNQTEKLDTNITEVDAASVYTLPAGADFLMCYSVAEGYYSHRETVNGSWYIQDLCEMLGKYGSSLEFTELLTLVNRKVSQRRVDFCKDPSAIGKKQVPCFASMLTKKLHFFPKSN

## O=C(CC(=O)c1ccccc1)c1ccccc1 [DBM, dibenzoylmethane]
[1]
  half-life: 4.84 min
HCoV-OC43; Entry
  time-of-addition, viral inhibition: 44.1 and 45.1 and 75.5
HCoV-OC43; Full-Time
  time-of-addition, viral inhibition: 98.8 and 98.7 (2×)
HCoV-OC43; Post-Entry
  time-of-addition, viral inhibition: 79.3 and 93.6 and 93.3
HCoV-OC43; RD cells, 0.6 μM DBM
  HCoV-OC43 infection, compound incubated before and during virus infection: did not significantly inhibit
  replication of HCoV-OC43, compound added 2 hours after virus inoculation: potently inhibited
caspase-6
  activity of caspase-6 in treated cells: decrease in the activity of caspase-6
caspase-6; time point 0, replicates
  Caspase-6 activity (Fig5J): 8.2 and 8.1 and 9.0
caspase-6; time point 2, replicates
  Caspase-6 activity (Fig5J): 11.9 and 12.2 and 11.5
caspase-6; time point 4, replicates
  Caspase-6 activity (Fig5J): 16.7 and 15.6 and 16.4
caspase-6; time point 6, replicates
  Caspase-6 activity (Fig5J): 12.2 and 13.5 and 13.6
caspase-6; time point 8, replicates
  Caspase-6 activity (Fig5J): 13.0 and 12.4 and 9.9
